Data on two molecules can be found in patent publication US10808001B2, “Biflavone-cobalt complex, preparation method and application thereof” (NANJING FORESTRY UNIVERSITY, priority 2017, dated 2020).

Assay [1] deals with cervical cancer cells (HeLa). Briefly: MTT method, inhibition of cervical cancer cells (HeLa). It counts as cell-based. As to conditions: Homo sapiens, absorbance at 595 nm, modified Karber formula, read-out: IC50, inhibition of growth of cervical cancer cells (HeLa). As to the method: (§1) The antitumor activity of Ame and Ame-Co complex were studied by MTT method with the following process:
(§2) (1) The HepG2 and HeLa cell suspensions were inoculated into 96-well culture plates, 100 μL was added for each well, (1×10^5/mL), and then cultured in a 5% CO2 incubator at 37° C. for 24 h;
(§3) (2) After culturing for 24 h, the supernatant was discarded, 100 μL of pre-diluted sample was added, 10 replicate wells were set for each concentration, and then incubated in the 5% CO2 incubator for 24 h; meanwhile, control wells (DMSO, cell suspension, MTT), and blank wells (medium, DMSO, MTT) were set;
(§4) (3) After culturing for […], the supernatant was discarded, 100 μL of DMEM medium containing MTT (5 mg/mL) were added, and then continuously cultured for 4 h; […]
(§5) Where, IR is the inhibition rate, OD0 is the absorbance of the control group, OD1 is the absorbance of the sample group, Xm is lg (the maximum dose), I is lg (the maximum dose/adjacent dose), P is the sum of positive reaction rates, Pm is the maximum positive reaction rate, and Pn is the minimum positive reaction rate.

The test system of a further assay is hepatoma cells (HepG2). Briefly: MTT method, inhibition of hepatoma cells (HepG2). It counts as cell-based. To be noted: Homo sapiens, HepG2, absorbance at 595 nm, modified Karber formula, read-out: IC50, inhibition of growth of hepatoma cells (HepG2). The protocol:
as §1, §2, §3, §4, §5

The next assay has as its system herring sperm DNA (fDNA). Briefly: Interaction with fDNA by UV-vis spectroscopy, fluorescence spectroscopy (fDNA-EB system) and viscosity method. The assay is classed as binding. To be noted: UV-vis, fluorescence (fDNA-EB) and viscosity methods. The text has this:
UV-vis spectroscopy, fluorescence spectroscopy and viscosity method are used to study the interaction between the Ame/Ame-Co complex and herring sperm DNA (fDNA) to further reveal the mechanism of antitumor activity, the obtained spectra are shown in FIGS. 7-11.

Assay [2] is described as follows: Pyrogallol auto-oxidation method, O2^−. free radical scavenging. To be noted: Tris-HCl pH 8.20, 25° C., 322 nm, read-out: IC50 to scavenge O2^−. free radical. As to the method:
The free radical scavenging capacity and the total antioxidant capacity of the Ame and the Ame-Co complex were studied by pyrogallol auto-oxidation method, ABTS method and FRAP method with the following steps:
(1) Pyrogallol Auto-Oxidation Method
Determination of auto-oxidation rate V0 of pyrogallol: 2 mL Tris-HCl buffer (pH=8.20) was added to a 10 mL sample tube at 25° C., 100 μL DMSO was added as a control, after adding 0.8 mL distilled water, 0.2 mL pyrogallol solution having a concentration of 2 mmol·L^−1 was added, the mixture was poured into a cuvette after mixing uniformly, the absorbance at 322 nm was measured with pure water as a blank, the A value was recorded every 10 s for a total of 4 min, linear regression was performed with t as the abscissa, and A as the ordinate, straight line slope thereof is V0, and the measurement was performed for three times to obtain an average value. […]

Assay [3] in a line: FRAP method, total antioxidant capacity. To be noted: Fe^3+-TPTZ, 37° C., 30 min, 593 nm. The protocol:
Drawing of the standard curve of FeSO4.7H2O: different volumes of FeSO4.7H2O solution were added to NaAc—HAc buffer (pH=3.6) to prepare Fe^2+ solution with different concentrations. 0.5 mL TPTZ solution, 0.1 mL DMSO, and 1.9 mL NaAc—HAc buffer containing Fe^2+ were successively added into a 10 mL sample tube, after reacting for 5 min at 37° C., the UV-vis spectrum was measured, and the absorption intensity at 593 nm was recorded, and the standard curve was drawn with absorbance (A) as the vertical coordinate and Fe^2+ concentration as the horizontal coordinate.
Determination of total antioxidant capacity of the sample: 0.5 mL TPTZ solution, 0.5 mL ferric chloride solution, 0.1 mL DMSO solution containing samples of different concentrations, and 1.5 mL NaAc—HAc buffer were successively added into a 10 mL sample tube, after reacting for 30 min at 37° C., the UV-vis spectrum was measured, and the absorption intensity A1 at 593 nm was recorded, the absorbance A1 of the sample was converted to the corresponding Fe^2+ ion concentration according to the standard curve of ferrous sulfate, and the curve was drawn with the sample concentration (csample) as the horizontal coordinate and the corresponding Fe^2+ concentration (cFe2+) as the vertical coordinate. […]

In the case of `O=c1cc(-c2ccc(O)c(-c3c(O)cc(O)c4c(=O)cc(-c5ccc(O)cc5)oc34)c2)oc2cc(O)cc(O)c12` [Ame, amentoflavone], the results for the IC50 (in assay [1]; with hepatoma cells (HepG2); in assay [2]) were 8.04 µM, 13.6 µM and 23.3 µM, respectively. Besides, the “manner of interaction with fDNA” value in the assay with herring sperm DNA (fDNA) was “in the intercalation manner”.
For the molecule `CS(C)=[O+][Co-4]1([O+]=S(C)C)[O+]=C2C=C(c3ccc(O)cc3)Oc3c2c(cc(O)c3-c2cc(-c3cc(=O)c4c(O)cc(O)cc4o3)ccc2O)[OH+]1` [Ame-Co complex, amentoflavone-cobalt (Ame-Co) complex], the “total antioxidant capacity compared with Ame at the same concentration” value in assay [3] is listed as “significantly stronger than that of Ame”. Further, in the assay with herring sperm DNA (fDNA), the “manner of interaction with fDNA” value was “in the intercalation manner”; the “strength of interaction with fDNA compared with Ame” value was “stronger than that between the Ame and the fDNA”. Besides, the IC50 in assay [2] is 4.74 µM.
